Experimental findings from publication PMC10384936, “Identification and Biological Characterization of the Pyrazolo[3,4-d]pyrimidine Derivative SI388 Active as Src Inhibitor” (Pharmaceuticals, 2023) are described below.

The inhibition is the change of the read-out against control, counted positive when it falls. A high value points to strong suppression. As usually defined, the Ki is the equilibrium dissociation constant of an inhibitor or competing ligand from its target. Read a high Ki as a looser hold on the target. In general, melting point refers to the temperature of the solid-liquid transition.

One series deals with T1, Src (Homo sapiens, UniProt P12931).
T1 construct: purchased Merck-Millipore
Put plainly: Src enzymatic assay (ADP-Glo kinase assay). Format: biochemical. Particulars: for Ki: mean of at least three experiments, 100 μM ATP. As to the method:
(§1) Src, Fyn, and Abl were purchased from Merck-Millipore. Reactions were performed according to the manufacturer’s instructions with minor modifications. All substrates were used at least at twice the concentration of apparent Km. In detail: Src reactions were performed using 500 μM Src-peptide (KVEKIGEGTYGVVYK), 100 μM ATP, and 0.00087% NP-40; Fyn reactions were performed using 360 μM Src-peptide (KVEKIGEGTYGVVYK), 200 μM ATP, and 0.0026% NP-40; Abl reactions were performed using 50 μM abltide (EAIYAAPFAKKK), 30 μM ATP, and 0.00087% NP-40. All reactions were performed using 10–50 ng of enzyme and 10% DMSO in 10 μL of kinase buffer (8 mM MOPS-NaOH pH7.0, 0.2 mM EDTA, 10 mM MgAc) at 30 °C for 10 min.
(§2) To avoid peptide adsorbing to the plastic surface, protein low-binding tubes were used. ADP-Glo kinase assay (Promega) was then used to detect kinase activity according to the manufacturer’s instructions with minor modifications. In detail, reactions were transferred to white 384 well-plates and stopped by adding 10 µL of ADP-Glo reagent (Promega) for 50 min at room temperature. A total of 20 μL of detection reagent (Promega) was then added for 30 min and the reaction read using a GloMax Discover microplate reader (Promega). Data were plotted using GraphPad Prism 5.0. IC50 values were obtained according to Equation (1):v = V/{1 + (I/IC50)} (1) where v is the measured reaction velocity, V is the apparent maximal velocity in the absence of inhibitor, I is the inhibitor concentration, and IC50 is the 50% inhibitory dose. Compounds tested were assumed to act as fully ATP-competitive inhibitors. Therefore, Ki values were calculated according to Equation (2):Ki = IC50/(1+ […]) (2) where Ki is the affinity of the inhibitor to the enzyme, S is the ATP concentration, and Km is the affinity of ATP calculated according to the Michaelis–Menten equation.
In general terms: ADP-Glo turns the ADP formed in a reaction into a luminescent signal.

The target of another series is T2, Fyn (Homo sapiens, UniProt P06241).
T2 construct: purchased Merck-Millipore
Put plainly: Fyn enzymatic assay (ADP-Glo kinase assay). Format: biochemical. The note with it: for Ki: mean of at least three experiments, 200 μM ATP. The procedure: as §1, §2

For another series, the target named is T3, Abl (Homo sapiens, UniProt P00519).
T3 construct: purchased Merck-Millipore
Put plainly: Abl enzymatic assay (ADP-Glo kinase assay). Format: biochemical. The procedure:
as §1, §2

T3 sequence (P00519 whole entry, species assumed): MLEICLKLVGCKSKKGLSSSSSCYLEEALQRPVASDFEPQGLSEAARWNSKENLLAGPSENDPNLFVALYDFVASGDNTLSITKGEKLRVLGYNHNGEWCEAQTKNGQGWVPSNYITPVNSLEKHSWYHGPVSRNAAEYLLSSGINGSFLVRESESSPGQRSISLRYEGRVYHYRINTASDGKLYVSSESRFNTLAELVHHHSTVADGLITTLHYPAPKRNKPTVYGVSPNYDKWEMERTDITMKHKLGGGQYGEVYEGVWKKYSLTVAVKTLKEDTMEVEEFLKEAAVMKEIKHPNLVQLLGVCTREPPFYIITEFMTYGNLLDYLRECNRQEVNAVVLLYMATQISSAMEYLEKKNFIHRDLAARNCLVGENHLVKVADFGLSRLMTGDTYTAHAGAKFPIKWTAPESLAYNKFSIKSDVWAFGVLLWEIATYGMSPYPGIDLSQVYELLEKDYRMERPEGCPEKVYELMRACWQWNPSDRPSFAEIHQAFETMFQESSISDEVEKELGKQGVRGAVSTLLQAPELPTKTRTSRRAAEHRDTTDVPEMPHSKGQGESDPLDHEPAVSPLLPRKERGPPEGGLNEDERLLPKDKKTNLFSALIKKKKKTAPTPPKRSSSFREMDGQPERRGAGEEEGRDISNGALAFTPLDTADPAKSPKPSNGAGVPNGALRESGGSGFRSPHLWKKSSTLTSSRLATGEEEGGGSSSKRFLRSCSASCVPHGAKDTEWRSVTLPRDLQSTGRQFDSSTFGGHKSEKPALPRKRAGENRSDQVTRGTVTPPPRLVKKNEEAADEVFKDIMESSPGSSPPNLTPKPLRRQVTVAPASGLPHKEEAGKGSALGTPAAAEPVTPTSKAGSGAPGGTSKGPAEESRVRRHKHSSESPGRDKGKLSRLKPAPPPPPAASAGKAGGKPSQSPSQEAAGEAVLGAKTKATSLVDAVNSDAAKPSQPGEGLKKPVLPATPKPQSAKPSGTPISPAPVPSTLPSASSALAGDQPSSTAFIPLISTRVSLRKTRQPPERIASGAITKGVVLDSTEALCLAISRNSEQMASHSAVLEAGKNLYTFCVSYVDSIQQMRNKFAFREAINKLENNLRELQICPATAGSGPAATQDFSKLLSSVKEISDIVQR
T2 sequence (P06241 whole entry, species assumed): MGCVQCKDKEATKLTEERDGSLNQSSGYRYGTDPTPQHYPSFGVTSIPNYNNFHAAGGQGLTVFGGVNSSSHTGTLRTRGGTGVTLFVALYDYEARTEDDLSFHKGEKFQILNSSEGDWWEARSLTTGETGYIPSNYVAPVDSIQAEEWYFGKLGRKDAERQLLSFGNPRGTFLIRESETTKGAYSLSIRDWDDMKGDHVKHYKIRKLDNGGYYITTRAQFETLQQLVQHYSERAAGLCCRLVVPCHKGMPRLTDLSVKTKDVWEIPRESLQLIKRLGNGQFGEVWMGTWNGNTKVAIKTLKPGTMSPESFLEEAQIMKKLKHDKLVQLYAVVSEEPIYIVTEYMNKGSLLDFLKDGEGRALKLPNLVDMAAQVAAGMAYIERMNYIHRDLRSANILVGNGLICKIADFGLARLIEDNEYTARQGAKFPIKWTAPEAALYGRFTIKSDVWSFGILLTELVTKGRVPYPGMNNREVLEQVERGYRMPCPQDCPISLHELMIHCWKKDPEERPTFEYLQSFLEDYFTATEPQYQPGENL
T1 sequence (P12931 whole entry, species assumed): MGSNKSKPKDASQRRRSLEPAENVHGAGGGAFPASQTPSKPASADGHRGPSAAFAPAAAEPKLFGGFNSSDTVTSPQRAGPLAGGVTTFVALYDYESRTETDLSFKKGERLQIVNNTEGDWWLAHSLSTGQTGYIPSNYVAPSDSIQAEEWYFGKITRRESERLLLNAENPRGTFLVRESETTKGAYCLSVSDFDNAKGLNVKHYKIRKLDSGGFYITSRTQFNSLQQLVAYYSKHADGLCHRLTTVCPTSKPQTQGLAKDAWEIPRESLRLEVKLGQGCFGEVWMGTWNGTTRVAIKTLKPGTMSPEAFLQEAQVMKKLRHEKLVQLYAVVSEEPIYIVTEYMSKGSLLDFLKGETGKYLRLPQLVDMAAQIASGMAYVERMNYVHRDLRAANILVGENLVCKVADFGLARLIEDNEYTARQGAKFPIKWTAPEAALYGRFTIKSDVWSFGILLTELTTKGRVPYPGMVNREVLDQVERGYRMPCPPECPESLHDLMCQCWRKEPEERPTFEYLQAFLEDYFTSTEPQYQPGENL

Regarding `CSc1nc(Nc2ccccc2)c2cnn(CC(Cl)c3ccc(F)cc3)c2n1` (centres unmarked) [2p, 1-(2-Chloro-2-(4-fluorophenyl)ethyl)-6-(methylthio)-N-phenyl-1H-pyrazolo[3,4-d]pyrimidin-4-amine], the melting point lay in the range of 227 to 230 °C. Moreover, on Src, the inhibition at 1 µM was determined as 14%, 10 µM produced 55% inhibition and the Ki was 14.4 ± 4.4 µM. Further, on Fyn, testing at 1 µM gave an inhibition of 15%, the inhibition at 10 µM was determined as 60% and the Ki worked out at 2.68 ± 0.37 µM. The compound also showed an inhibition at 10 µM against Abl of 12%.

Consider `ClC(Cn1ncc2c(Nc3ccccc3)nc(-c3ccccc3)nc21)c1ccccc1` (centres unmarked) [2n, 1-(2-Chloro-2-phenylethyl)-N,6-diphenyl-1H-pyrazolo[3,4-d]pyrimidin-4-amine], for which the melting point was 130 to 140 °C (dec.). Besides, on Src, 1 µM produced 11% inhibition and the inhibition at 10 µM stood at 13%. At Fyn, this compound had an inhibition at 1 µM of 16% and an inhibition at 10 µM of 23%. At Abl, this compound returned an inhibition at 1 µM of 5% and an inhibition at 10 µM of 18%.

Consider `CCc1nc(Nc2ccccc2)c2cnn(CC(Cl)c3ccccc3)c2n1` (centres unmarked) [2h, 1-(2-Chloro-2-phenylethyl)-6-ethyl-N-phenyl-1H-pyrazolo[3,4-d]pyrimidin-4-amine], for which the melting point lay in the range of 174 to 176 °C. On Src, this compound gave an inhibition at 10 µM of 12% and an inhibition at 100 µM of 98.3%. On Fyn, this compound gave an inhibition at 10 µM of 57%, an inhibition at 100 µM of 82% and a Ki of 10.3 ± 3.13 µM. At Abl, the inhibition at 1 µM came to 34%.

As to `CC(C)Sc1nc(Nc2cccc(Cl)c2)c2cnn(CC(Cl)c3ccccc3)c2n1` (centres unmarked) [2d, 1-(2-Chloro-2-phenylethyl)-N-(3-chlorophenyl)-6-(isopropylthio)-1H-pyrazolo[3,4-d]pyrimidin-4-amine], the inhibition at 10 µM was 34% on Src, 8% against Fyn and 24% against Abl. In addition, the inhibition at 100 µM at Src was 99.5%; against Fyn, 26%.

Regarding `FC(F)(F)c1nc(Nc2ccccc2)c2cnn(CC(Cl)c3ccccc3)c2n1` (centres unmarked) [2k, 1-(2-Chloro-2-phenylethyl)-N-phenyl-6-(trifluoromethyl)-1H-pyrazolo[3,4-d]pyrimidin-4-amine], the melting point lay within 139 to 141 °C. At Src, at 10 µM the inhibition was 50.3% and 100 µM produced 99.2% inhibition. Also, at Fyn, the inhibition at 10 µM turned out to be 47%, the inhibition at 100 µM was 66% and affinity was put at a Ki of 3.79 ± 1.01 µM. The compound also gave an inhibition at 10 µM on Abl of 39%.

In turn, `CCSc1nc(Nc2ccccc2)c2cnn(CC(Cl)c3ccccc3)c2n1` (centres unmarked) [2c, 1-(2-Chloro-2-phenylethyl)-6-(ethylthio)-N-phenyl-1H-pyrazolo[3,4-d]pyrimidin-4-amine] returned a melting point of 128 to 131 °C. For the same compound, on Src, testing at 1 µM gave an inhibition of 16% and the inhibition at 10 µM amounted to 27%. For the same compound, on Fyn, the inhibition at 1 µM was 33% and testing at 10 µM gave an inhibition of 64%. Moreover, at Abl, at 1 µM the inhibition was 18% and at 10 µM the inhibition was 35%.

`CCCc1nc(Nc2ccccc2)c2cnn(CC(Cl)c3ccc(Cl)cc3)c2n1` (centres unmarked) [2s, 1-(2-Chloro-2-(4-chlorophenyl)ethyl)-N-phenyl-6-propyl-1H-pyrazolo[3,4-d]pyrimidin-4-amine] had a melting point of 154 to 156 °C. This compound also came in with a Ki on Fyn of 10.2 ± 2.11 µM.

As for `FC(F)(F)c1nc(Nc2cccc(Cl)c2)c2cnn(CC(Cl)c3ccccc3)c2n1` (centres unmarked) [2m, N-(3-Chlorophenyl)-1-(2-chloro-2-phenylethyl)-6-trifluoromethyl-1H-pyrazolo[3,4-d]pyrimidin-4-amine], the melting point was in the range of 88 to 90 °C. On Src, the inhibition at 10 µM was determined as 67%. At Fyn, this compound yielded an inhibition at 1 µM of 2.5% and an inhibition at 10 µM of 20%. Further, at Abl, testing at 1 µM gave an inhibition of 15% and the inhibition at 10 µM turned out to be 18%.

As for `Oc1cc(Nc2nc(SCCN3CCOCC3)nc3c2cnn3CC(Cl)c2ccccc2)c(F)cc1F` (centres unmarked) [2g, 5-((1-(2-Chloro-2-phenylethyl)-6-((2-morpholinoethyl)thio)-1H-pyrazolo[3,4-d]pyrimidin-4-yl)amino)-2,4-difluorophenol], the melting point lay in the range of 146 to 149 °C. On Src, this compound displayed an inhibition at 1 µM of 43.3% and an inhibition at 10 µM of 93.6%. On Abl, this compound had an inhibition at 1 µM of 33.5% and an inhibition at 10 µM of 83%.

`CCc1nc(Nc2ccccc2)c2cnn(CC(Cl)c3ccc(Cl)cc3)c2n1` (centres unmarked) [2r, 1-(2-Chloro-2-(4-chlorophenyl)ethyl)-6-ethyl-N-phenyl-1H-pyrazolo[3,4-d]pyrimidin-4-amine] yielded a melting point of 193 to 195 °C. Besides, testing at 10 µM on Src gave an inhibition of 7.5%. For the same compound, at Fyn, the inhibition at 1 µM turned out to be 48%, testing at 10 µM gave an inhibition of 75% and the Ki came to 1.74 ± 0.71 µM.

In the case of `ClC(Cn1ncc2c(Nc3ccccc3)nc(C3CCCCC3)nc21)c1ccccc1` (centres unmarked) [2j, 1-(2-Chloro-2-phenylethyl)-6-cyclohexyl-N-phenyl-1H-pyrazolo[3,4-d]pyrimidin-4-amine], the melting point lay within 134 to 136 °C. Besides, on Src, at 10 µM the inhibition was 5% and the inhibition at 100 µM was 95.3%. At Fyn, this compound registered an inhibition at 10 µM of 13% and an inhibition at 100 µM of 38%. The same compound displayed an inhibition at 1 µM at Abl of 39%.

As for `Clc1cccc(Nc2nc(C3CCCC3)nc3c2cnn3CC(Cl)c2ccccc2)c1` (centres unmarked) [2i, 1-(2-Chloro-2-phenylethyl)-N-(3-chlorophenyl)-6-cyclopentyl-1H-pyrazolo[3,4-d]pyrimidin-4-amine], the melting point is 189 to 190 °C. In addition, at Src, 10 µM produced 56% inhibition and the inhibition at 100 µM was 98.8%. For the same compound, at Fyn, testing at 10 µM gave an inhibition of 15% and at 100 µM the inhibition was 19%.

As to `CSc1nc(Nc2ccc(Cl)cc2)c2cnn(CC(Cl)c3ccccc3)c2n1` (centres unmarked) [2b, 1-(2-Chloro-2-phenylethyl)-N-(4-chlorophenyl)-6-(methylthio)-1H-pyrazolo[3,4-d]pyrimidin-4-amine], at Src, the “Activity towards Src in cell-free assay (in words)” value is “inactive” and the inhibition at 1 µM was found to be 24%. Moreover, on Abl, the “Activity towards Bcr-Abl in cell-free assay (in words)” value is “inactive” and 10 µM produced 23% inhibition.

Compound `Cl.Oc1cc(Nc2nc(SCCN3CCOCC3)nc3c2cnn3CC(Cl)c2ccccc2)ccc1F` (centres unmarked) [2f, 5-({1-(2-Chloro-2-phenylethyl)-6-[(2-morpholinoethyl)thio]-1H-pyrazolo[3,4-d]pyrimidin-4-yl)amino)-2-fluorophenol hydrochloride] returned a melting point of 238 to 239 °C. Also, the inhibition at 10 µM against Src turned out to be 79%. At Abl, this compound returned an inhibition at 1 µM of 3% and an inhibition at 10 µM of 67%.

Compound `Clc1cccc(Nc2nc(-c3ccccc3)nc3c2cnn3CC(Cl)c2ccccc2)c1` (centres unmarked) [2o, 1-(2-Chloro-2-phenylethyl)-N-(3-chlorophenyl)-6-phenyl-1H-pyrazolo[3,4-d]pyrimidin-4-amine] showed a melting point of 82 to 84 °C. The inhibition at 10 µM against Fyn came to 8%.

`Clc1ccccc1Nc1nc(SCCN2CCOCC2)nc2c1cnn2CC(Cl)c1ccccc1` (centres unmarked) [2e, 1-(2-Chloro-2-phenylethyl)-N-(2-chlorophenyl)-6-((2-morpholinoethyl)thio)-1H-pyrazolo[3,4-d]pyrimidin-4-amine] gave a melting point of 117 to 118 °C. Moreover, the inhibition at 10 µM at Abl is 26.3%.

`Cc1nc(Nc2ccccc2)c2cnn(CC(Cl)c3ccc(Cl)cc3)c2n1` (centres unmarked) [2q, 1-(2-Chloro-2-(4-chlorophenyl)ethyl)-6-methyl-N-phenyl-1H-pyrazolo[3,4-d]pyrimidin-4-amine] registered a melting point of 202 to 203 °C. Further, at Src, the inhibition at 1 µM came to 29%, the inhibition at 10 µM was found to be 48% and affinity was put at a Ki of 16.5 ± 4 µM. Further, on Fyn, the inhibition at 1 µM was determined as 24%, testing at 10 µM gave an inhibition of 78% and the Ki was found to be 2.07 ± 1.1 µM. For the same compound, on Abl, testing at 1 µM gave an inhibition of 20% and the inhibition at 10 µM is 25%.

`Fc1cccc(Nc2nc(C(F)(F)F)nc3c2cnn3CC(Cl)c2ccccc2)c1` (centres unmarked) [2l, 1-(2-Chloro-2-phenylethyl)-N-(3-fluorophenyl)-6-(trifluoromethyl)-1H-pyrazolo[3,4-d]pyrimidin-4-amine] had a melting point of 164 to 166 °C. On Fyn, at 1 µM the inhibition was 19% and the inhibition at 10 µM is 10%. On Abl, this compound came in with an inhibition at 1 µM of 40%.
